The values below come from US7910324B2, “Method of screening for compounds which affect the processing of EphA4 by γ-secretase” (priority 2007, dated 2011).

In assay [1] the test system is γ-secretase cleavage of rat EphA4 with HA tag in HEK293 cells. The assay is described as follows: EphA4 processing in EphA4-HA transfected 293/EBNA-1 cells, Western blot with anti-HA antibody. The settings on record: Compound E 50 nM, one day, EphA4-HA transfected 293/EBNA-1 (HEK293) cells. It is filed as cell-based. How it is done:
Whether or not EphA4 is a substrate for γ-secretase was evaluated using HEK293 cells expressing EphA4 with an HA tag added to its C-terminus, in the presence of a γ-secretase inhibitor. As the γ-secretase inhibitor, (2S)-2-{[(3,5-difluorophenyl)acetyl]amino}-N-[(3S)-1-methyl-2-oxo-5-phenyl-2,3-dihydro-1H-1,4-benzodiazepin-3-yl]propanamide (hereinafter, sometimes referred to as “Compound E”) (Alexis Biochemicals) was used.
293/EBNA-1 cell strain (Invitrogen) was cultured in 10% FBS (Hyclone)/DMEM (Invitrogen) under 5% CO2 at 37° C., followed by transfection thereinto of a gene encoding rat EphA4 with an HA tag added to its C-terminus with Lipofectamine 2000 (Invitrogen). After one day culture under the same conditions, Compound E (γ-secretase inhibitor, Alexis Biochemicals) was added to the medium (final concentration: 50 nM). Cells were cultured for another day under the same conditions. Then, the transfected HEK293 cells were collected with PBS (Sigma) and sonicated with a sonicator (Taitec VP-5S) to disrupt cells. Then, the quantity of protein was determined with Protein Assay Kit (BioRad). Samples (2 μg each) were taken from proteins obtained from Compound E-added cells and Compound E-not added cells, respectively, and subjected to SDS-PAGE, followed by Western blotting with an anti-HA antibody (Roche) (final concentration: 0.2 μg/ml). […]
On the technique in general: Immunoblotting shows a protein as a band on a membrane.

Assay [2] relates to γ-secretase cleavage of EphA4 in rat hippocampal neurons. Description: EphA4 processing in primary culture of rat hippocampal neurons, Western blot with anti-EphA4 antibody. Format: cell-based. The note with it: Compound E 50 nM, one week. How it is done: Whether or not EphA4 is a substrate for γ-secretase was evaluated using a primary culture of rat hippocampal neurons in the presence of a γ-secretase inhibitor. As the γ-secretase inhibitor, (2S)-2-{[(3,5-difluorophenyl)acetyl]amino}-N-[(3S)-1-methyl-2-oxo-5-phenyl-2,3-dihydro-1H-1,4-benzodiazepin-3-yl]propanamide (Compound E) (Alexis Biochemicals) was used.
The hippocampus was isolated from embryonic day 18 SD rats (Charles River) and subjected to culture. Specifically, embryos were removed aseptically from pregnant rats under etherization. The brain was removed from each embryo and dipped in 20% FBS (Hyclone)/HBSS (Sigma). The hippocampus was collected from the thus obtained brain under a stereomicroscope. The collected hippocampus was treated in an enzyme solution containing 0.25% trypsin (Invitrogen) and 0.5 mg/ml DNase (Sigma) at 37° C. for 10 minutes to disperse cells. This enzyme reaction was terminated by adding 20% FBS (Hyclone)/HBSS (Sigma). Then, 2 ml of HBSS (Sigma) was added to the resultant cells. The HBSS-added cell mass was re-dispersed by gentle pipetting. The resultant neuron suspension was diluted with a medium and plated in 10 cm dishes at an initial cell density of 1.5×10^6 cells/dish. […] Then, cells were collected with PBS and subjected to quantitative determination of protein. […]

As for `C[C@H](NC(=O)Cc1cc(F)cc(F)c1)C(=O)N[C@H]1N=C(c2ccccc2)c2ccccc2N(C)C1=O` [Compound E, (2S)-2-{[(3,5-difluorophenyl)acetyl]amino}-N-[(3S)-1-methyl-2-oxo-5-phenyl-2,3-dihydro-1H-1,4-benzodiazepin-3-yl]propanamide], in assay [1], the “accumulation of EphA4 CTF band around 50 kDa (EphA4 undegraded product)” value is given as “a band around 50 kDa (CTF) was accumulated specifically”. Further, in assay [2], the “accumulation of EphA4 CTF band around 50 kDa” value was “a band around 50 kDa (CTF) was accumulated specifically”.
